Each compound was assayed on RSV A2 virus (assay: RSV CPE assay). Conditions: human respiratory syncytial virus, HEp-2, 120 h, read-out: RSV A2 (Hep-2 cell) EC50.
Work on CC(C)OC(=O)OCO[P@](=O)(N[C@@H](C)C(=O)OC1CCC1)OC[C@H]1O[C@@](C#N)(c2ccc3c(N)ncnn23)[C@H](OC(=O)C(C)C)[C@@H]1OC(=O)C(C)C [Compound 13b, (2R,3R,4R,5R)-2-(4-aminopyrrolo[2,1-f][1,2,4]triazin-7-yl)-2-cyano-5-((((S)-(((S)-1-cyclobutoxy-1-oxopropan-2-yl)amino)(((isopropoxycarbonyl)oxy)methoxy)phosphoryl)oxy)methyl)tetrahydrofuran-3,4-diyl bis(2-methylpropionate)] yielded an EC50 of 200 to 500 nM. Work on CC(=O)O[C@H]1[C@@H](OC(C)=O)[C@](C#N)(c2ccc3c(N)ncnn23)O[C@@H]1COP(=O)(OCOC(=O)OC(C)C)OCOC(=O)OC(C)C [Compound 17, (2R,3R,4R,5R)-2-(4-aminopyrrolo[2,1-f][1,2,4]triazin-7-yl)-5-((((bis(((isopropoxycarbonyl)oxy)methoxy)phosphoryl))oxy)methyl)-2-cyanotetrahydrofuran-3,4-diyl diacetate] yielded an EC50 of 100 to 200 nM. With CC(C)OC(=O)OCOP(=O)(OCOC(=O)OC(C)C)OC[C@H]1O[C@@](C#N)(c2ccc3c(N)ncnn23)[C@H](OC(=O)C(C)C)[C@@H]1OC(=O)C(C)C [Compound 19, (2R,3R,4R,5R)-2-(4-aminopyrrolo[2,1-f][1,2,4]triazin-7-yl)-5-((((bis(((isopropoxycarbonyl)oxy)methoxy))phosphoryl)oxy)methyl)-2-cyanotetrahydrofuran-3,4-diyl bis(2-methylpropionate)] the EC50 was 200 to 500 nM. With CC(C)OC(=O)OCOP(=O)(OCOC(=O)OC(C)C)OC[C@H]1O[C@@](C#N)(c2ccc3c(N)ncnn23)[C@H](OC(=O)C(C)(C)C)[C@@H]1OC(=O)C(C)(C)C [Compound 20, (2R,3R,4R,5R)-2-(4-aminopyrrolo[2,1-f][1,2,4]triazin-7-yl)-5-((((bis(((isopropoxycarbonyl)oxy)methoxy))phosphoryl)oxy)methyl)-2-cyanotetrahydrofuran-3,4-diyl bis(2,2-dimethylpropionate)] the EC50 was greater than 1000 nM. With CC(C)OC(=O)OCO[P@@](=O)(OC[C@H]1O[C@@](C#N)(c2ccc3c(N)ncnn23)[C@H](OC(=O)C(C)C)[C@@H]1OC(=O)C(C)C)Oc1ccc(C(C)(C)C)cc1 [Compound 24a, (2R,3R,4R,5R)-2-(4-aminopyrrolo[2,1-f][1,2,4]triazin-7-yl)-5-((((S)-(4-tert-butylphenoxy)(((isopropoxycarbonyl)oxy)methoxy)phosphoryl)oxy)methyl)-2-cyanotetrahydrofuran-3,4-diyl bis(2-methylpropionate)] the EC50 was greater than 1000 nM. With CC(C)C(=O)O[C@H]1[C@@H](OC(=O)C(C)C)[C@](C#N)(c2ccc3c(N)ncnn23)O[C@@H]1COP(=O)(OCOC(=O)C(C)(C)C)OCOC(=O)C(C)(C)C [Compound 29, (2R,3R,4R,5R)-2-(4-aminopyrrolo[2,1-f][1,2,4]triazin-7-yl)-5-((((bis(((tert-butylcarbonyl)oxy)methoxy))phosphoryl)oxy)methyl)-2-cyanotetrahydrofuran-3,4-diyl bis(2-methylpropionate)] the EC50 was 500 to 1000 nM. Work on CC(C)C(=O)O[C@H]1[C@@H](OC(=O)C(C)C)[C@](C#N)(c2ccc3c(N)ncnn23)O[C@@H]1COP(=O)(OCCSC(=O)C(C)(C)C)OCCSC(=O)C(C)(C)C [Compound 30, (2R,3R,4R,5R)-2-(4-aminopyrrolo[2,1-f][1,2,4]triazin-7-yl)-5-((((bis(2-(pivaloylthio)ethoxy))phosphoryl)oxy)methyl)-2-cyanotetrahydrofuran-3,4-diyl bis(2-methylpropionate)] yielded an EC50 of 200 to 500 nM. For CCC(CC)COC(=O)[C@H](Cc1ccccc1)N[P@@](=O)(OCOC(=O)OC(C)C)OC[C@H]1O[C@@](C#N)(c2ccc3c(N)ncnn23)[C@H](OC(=O)C(C)C)[C@@H]1OC(=O)C(C)C [Compound 31b, (2R,3R,4R,5R)-2-(4-aminopyrrolo[2,1-f][1,2,4]triazin-7-yl)-2-cyano-5-((((S)-(((S)-1-(2-ethylbutoxy)-1-oxo-3-phenylpropan-2-yl)amino)(((isopropoxycarbonyl)oxy)methoxy)phosphoryl)oxy)methyl)tetrahydrofuran-3,4-diyl bis(2-methylpropionate)], the EC50 was 200 to 500 nM. With CCC(CC)COC(=O)C1(N[P@@](=O)(OCOC(=O)OC(C)C)OC[C@H]2O[C@@](C#N)(c3ccc4c(N)ncnn34)[C@H](OC(=O)C(C)C)[C@@H]2OC(=O)C(C)C)CCC1 [Compound 32b, (2R,3R,4R,5R)-2-(4-aminopyrrolo[2,1-f][1,2,4]triazin-7-yl)-2-cyano-5-((((S)-((1-((2-ethylbutoxy)carbonyl)cyclobutyl)amino)(((isopropoxycarbonyl)oxy)methoxy)phosphoryl)oxy)methyl)tetrahydrofuran-3,4-diyl bis(2-methylpropionate)] the EC50 was 500 to 1000 nM. Compound CCCCCOC(=O)C[C@H](N[P@](=O)(OC[C@H]1O[C@@](C#N)(c2ccc3c(N)ncnn23)[C@H](OC(=O)C(C)C)[C@@H]1OC(=O)C(C)C)Oc1ccccc1)C(=O)OCCCCC [Compound 38b, (2R,3R,4R,5R)-2-(4-aminopyrrolo[2,1-f][1,2,4]triazin-7-yl)-2-cyano-5-((((S)-(((S)-1,4-dipentyloxy-1,4-dioxobutan-2-yl)amino)(phenoxy)phosphoryl)oxy)methyl)tetrahydrofuran-3,4-diyl bis(2-methylpropionate)] has an EC50 of less than 100 nM. Work on CCCCCOC(=O)C[C@H](N[P@@](=O)(OC[C@H]1O[C@@](C#N)(c2ccc3c(N)ncnn23)[C@H](OC(=O)C(C)C)[C@@H]1OC(=O)C(C)C)Oc1ccc(C(C)(C)C)cc1)C(=O)OCCCCC [Compound 39a, (2R,3R,4R,5R)-2-(4-aminopyrrolo[2,1-f][1,2,4]triazin-7-yl)-2-cyano-5-((((R)-(((S)-1,4-dipentyloxy-1,4-dioxobutan-2-yl)amino)(4-tert-butylphenoxy)phosphoryl)oxy)methyl)tetrahydrofuran-3,4-diyl bis(2-methylpropionate)] yielded an EC50 of less than 100 nM. With CCCCCOC(=O)C[C@H](N[P@](=O)(OC[C@H]1O[C@@](C#N)(c2ccc3c(N)ncnn23)[C@H](OC(=O)C(C)C)[C@@H]1OC(=O)C(C)C)Oc1ccc(C(C)(C)C)cc1)C(=O)OCCCCC [Compound 39b, (2R,3R,4R,5R)-2-(4-aminopyrrolo[2,1-f][1,2,4]triazin-7-yl)-2-cyano-5-((((S)-(((S)-1,4-dipentyloxy-1,4-dioxobutan-2-yl)amino)(4-tert-butylphenoxy)phosphoryl)oxy)methyl)tetrahydrofuran-3,4-diyl bis(2-methylpropionate)] the EC50 was less than 100 nM. In the case of CCC(CC)COC(=O)[C@H](Cc1ccccc1)N[P@](=O)(OC[C@H]1O[C@@](C#N)(c2ccc3c(N)ncnn23)[C@H](OC(=O)C(C)C)[C@@H]1OC(=O)C(C)C)Oc1ccccc1 [Compound 41b, (2R,3R,4R,5R)-2-(4-aminopyrrolo[2,1-f][1,2,4]triazin-7-yl)-2-cyano-5-((((S)-(((S)-1-(2-ethylbutoxy)-1-oxo-3-phenylpropan-2-yl)amino)(phenoxy)phosphoryl)oxy)methyl)tetrahydrofuran-3,4-diyl bis(2-methylpropionate)], the EC50 is reported as less than 100 nM. With CC(C)C(=O)O[C@H]1[C@@H](OC(=O)C(C)C)[C@](C#N)(c2ccc3c(N)ncnn23)O[C@@H]1CO[P@](=O)(N[C@@H](CC(=O)OC1CCC1)C(=O)OC1CCC1)Oc1ccccc1 [Compound 54a, (2R,3R,4R,5R)-2-(4-aminopyrrolo[2,1-f][1,2,4]triazin-7-yl)-2-cyano-5-((((R)-(((S)-1,4-dicyclobutoxy-1,4-dioxobutan-2-yl)amino)(phenoxy)phosphoryl)oxy)methyl)tetrahydrofuran-3,4-diyl bis(2-methylpropionate)] the EC50 was 100 to 200 nM. CC(C)C(=O)O[C@H]1[C@@H](OC(=O)C(C)C)[C@](C#N)(c2ccc3c(N)ncnn23)O[C@@H]1CO[P@@](=O)(N[C@@H](CC(=O)OC1CCC1)C(=O)OC1CCC1)Oc1ccccc1 [Compound 54b, (2R,3R,4R,5R)-2-(4-aminopyrrolo[2,1-f][1,2,4]triazin-7-yl)-2-cyano-5-((((S)-(((S)-1,4-dicyclobutoxy-1,4-dioxobutan-2-yl)amino)(phenoxy)phosphoryl)oxy)methyl)tetrahydrofuran-3,4-diyl bis(2-methylpropionate)] gave an EC50 of less than 100 nM. Work on CC(C)(C)C(=O)O[C@H]1[C@@H](OC(=O)C(C)(C)C)[C@](C#N)(c2ccc3c(N)ncnn23)O[C@@H]1CO[P@](=O)(N[C@@H](CC(=O)OC1CCC1)C(=O)OC1CCC1)Oc1ccccc1 [Compound 57a, (2R,3R,4R,5R)-2-(4-aminopyrrolo[2,1-f][1,2,4]triazin-7-yl)-2-cyano-5-((((R)-(((S)-1,4-dicyclobutoxy-1,4-dioxobutan-2-yl)amino)(phenoxy)phosphoryl)oxy)methyl)tetrahydrofuran-3,4-diyl bis(2,2-dimethylpropionate)] yielded an EC50 of 500 to 1000 nM.

Same assay, conditions: read-out: RSV A2 (Hep-2 cell) EC50; HEp-2 cells, RSV A2 virus, 5 days, CCK8
With CCC(CC)COC(=O)[C@H](Cc1ccccc1)N[P@@](=O)(OC[C@H]1O[C@@](C#N)(c2ccc3c(N)ncnn23)[C@H](OC(=O)C(C)C)[C@@H]1OC(=O)C(C)C)Oc1ccc(C(C)(C)C)cc1 [Compound 53a, (2R,3R,4R,5R)-2-(4-aminopyrrolo[2,1-f][1,2,4]triazin-7-yl)-2-cyano-5-((((((S)-1-(2-ethylbutoxy)-1-oxo-3-phenylpropan-2-yl)amino)((R)-4-tert-butylphenoxy)phosphoryl)oxy)methyl)tetrahydrofuran-3,4-diyl bis(2-methylpropionate)] the EC50 was less than 100 nM. With CCC(CC)COC(=O)[C@H](Cc1ccccc1)N[P@](=O)(OC[C@H]1O[C@@](C#N)(c2ccc3c(N)ncnn23)[C@H](OC(=O)C(C)C)[C@@H]1OC(=O)C(C)C)Oc1ccc(C(C)(C)C)cc1 [Compound 53b, (2R,3R,4R,5R)-2-(4-aminopyrrolo[2,1-f][1,2,4]triazin-7-yl)-2-cyano-5-((((((S)-1-(2-ethylbutoxy)-1-oxo-3-phenylpropan-2-yl)amino)((S)-4-tert-butylphenoxy)phosphoryl)oxy)methyl)tetrahydrofuran-3,4-diyl bis(2-methylpropionate)] the EC50 was less than 100 nM.
